PubChem BioAssay (NCI)
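Following 48 hours of exposure in 96-well plates, responses at five concentrations were used to interpolate endpoints linearly. GI50 = concentration required for 50% inhibition of growth. TGI is the concentration that stops growth completely.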

Columns and labels:
Assay in all cases: inhibition of tumour cell growth, NCI panel, 48 h
MDA-MB-231 breast = system: MDA-MB-231 breast
SNB-75 CNS = system: SNB-75 CNS
HCC-2998 colon = system: HCC-2998 colon
SW-620 colon = system: SW-620 colon
NCI-H226 lung = system: NCI-H226 lung
PC-3 prostate = system: PC-3 prostate
LOX IMVI melanoma = system: LOX IMVI melanoma
CAKI-1 renal = system: CAKI-1 renal
OVCAR-8 ovarian = system: OVCAR-8 ovarian
HL-60(TB) leukemia = system: HL-60(TB) leukemia
RPMI-8226 leukemia = system: RPMI-8226 leukemia
CCRF-CEM leukemia = system: CCRF-CEM leukemia
UACC-257 melanoma = system: UACC-257 melanoma
HOP-62 NSCLC = system: HOP-62 NSCLC
KM12 colon = system: KM12 colon
UO-31 renal = system: UO-31 renal
U251 CNS = system: U251 CNS
IGROV1 ovarian = system: IGROV1 ovarian
EKVX NSCLC = system: EKVX NSCLC
K-562 leukemia = system: K-562 leukemia
NCI-H23 lung = system: NCI-H23 lung
COLO 205 colon = system: COLO 205 colon
NCI-H460 lung = system: NCI-H460 lung
TK-10 renal = system: TK-10 renal
HCT-15 colon = system: HCT-15 colon
BT-549 breast = system: BT-549 breast
HCT-116 colon = system: HCT-116 colon
HS 578T breast = system: HS 578T breast
RXF 393 renal = system: RXF 393 renal
DU-145 prostate = system: DU-145 prostate
A549 NSCLC = system: A549 NSCLC
SK-MEL-5 melanoma = system: SK-MEL-5 melanoma
NCI/ADR-RES ovarian = system: NCI/ADR-RES ovarian
SK-MEL-28 melanoma = system: SK-MEL-28 melanoma
MCF7 breast = system: MCF7 breast
SF-295 CNS = system: SF-295 CNS
OVCAR-4 ovarian = system: OVCAR-4 ovarian
SK-MEL-2 melanoma = system: SK-MEL-2 melanoma
MALME-3M melanoma = system: MALME-3M melanoma
SNB-19 CNS = system: SNB-19 CNS
A498 renal = system: A498 renal
SK-OV-3 ovarian = system: SK-OV-3 ovarian
MOLT-4 leukemia = system: MOLT-4 leukemia
NCI-H522 lung = system: NCI-H522 lung
SF-539 CNS = system: SF-539 CNS
786-0 renal = system: 786-0 renal
T-47D breast = system: T-47D breast
M14 melanoma = system: M14 melanoma
OVCAR-3 ovarian = system: OVCAR-3 ovarian
HT29 colon = system: HT29 colon
ACHN renal = system: ACHN renal
MDA-MB-435 = system: MDA-MB-435
OVCAR-5 ovarian = system: OVCAR-5 ovarian
UACC-62 melanoma = system: UACC-62 melanoma
HOP-92 NSCLC = system: HOP-92 NSCLC
SR leukemia = system: SR leukemia
SN12C renal = system: SN12C renal
SF-268 CNS = system: SF-268 CNS

SMILES: OCc1cn(Cc2ccc(Cl)cc2)c2ccccc12
- GI50 (MDA-MB-231 breast): 6.02 µM
- TGI (MDA-MB-231 breast): 25.6 µM
- GI50 (SNB-75 CNS): 4.52 µM
- TGI (SNB-75 CNS): 19.9 µM
- GI50 (HCC-2998 colon): 4.09 µM
- TGI (HCC-2998 colon): 20.3 µM
- GI50 (SW-620 colon): 0.811 µM
- TGI (SW-620 colon): 22.9 µM
- GI50 (NCI-H226 lung): < 0.01 µM
- TGI (NCI-H226 lung): 0.106 µM
- GI50 (PC-3 prostate): 15 µM
- TGI (PC-3 prostate): 47.1 µM
- GI50 (LOX IMVI melanoma): 4.26 µM
- TGI (LOX IMVI melanoma): 16.1 µM
- TGI (CAKI-1 renal): 2.15 µM
- GI50 (OVCAR-8 ovarian): 4.36 µM
- TGI (OVCAR-8 ovarian): 40 µM
- GI50 (HL-60(TB) leukemia): 3.9 µM
- TGI (HL-60(TB) leukemia): 21.4 µM
- GI50 (RPMI-8226 leukemia): 0.636 µM
- TGI (RPMI-8226 leukemia): 5.23 µM
- GI50 (CCRF-CEM leukemia): 2.2 µM
- TGI (CCRF-CEM leukemia): 16.8 µM
- GI50 (UACC-257 melanoma): 0.22 µM
- TGI (UACC-257 melanoma): 0.517 µM
- GI50 (HOP-62 NSCLC): 0.84 µM
- TGI (HOP-62 NSCLC): 21.7 µM
- GI50 (KM12 colon): 16.9 µM
- TGI (KM12 colon): 38.1 µM
- GI50 (UO-31 renal): 1.66 µM
- TGI (UO-31 renal): 13 µM
- GI50 (U251 CNS): 2.62 µM
- TGI (U251 CNS): 22.6 µM
- GI50 (IGROV1 ovarian): < 0.0227 µM
- TGI (IGROV1 ovarian): 0.709 µM
- GI50 (EKVX NSCLC): 21.1 µM
- TGI (EKVX NSCLC): 60 µM
- GI50 (K-562 leukemia): 1.61 µM
- TGI (K-562 leukemia): 25.4 µM
- GI50 (NCI-H23 lung): 3.85 µM
- TGI (NCI-H23 lung): 21.1 µM
- GI50 (COLO 205 colon): 0.615 µM
- TGI (COLO 205 colon): 6.89 µM
- GI50 (NCI-H460 lung): 0.124 µM
- TGI (NCI-H460 lung): 18.5 µM
- GI50 (TK-10 renal): < 0.0115 µM
- TGI (TK-10 renal): 0.195 µM
- GI50 (HCT-15 colon): 3.44 µM
- TGI (HCT-15 colon): 28.5 µM
- GI50 (BT-549 breast): 3.65 µM
- TGI (BT-549 breast): 17.5 µM
- GI50 (HCT-116 colon): 0.0393 µM
- TGI (HCT-116 colon): 12 µM
- GI50 (HS 578T breast): 4.76 µM
- TGI (HS 578T breast): 25.6 µM
- GI50 (RXF 393 renal): 0.424 µM
- TGI (RXF 393 renal): 4.44 µM
- GI50 (DU-145 prostate): 8.11 µM
- TGI (DU-145 prostate): 31.8 µM
- GI50 (A549 NSCLC): 2.64 µM
- TGI (A549 NSCLC): 40.8 µM
- GI50 (SK-MEL-5 melanoma): 4.59 µM
- TGI (SK-MEL-5 melanoma): 18.6 µM
- GI50 (NCI/ADR-RES ovarian): 8.41 µM
- TGI (NCI/ADR-RES ovarian): 30.8 µM
- GI50 (SK-MEL-28 melanoma): 15.1 µM
- TGI (SK-MEL-28 melanoma): 44 µM
- GI50 (MCF7 breast): 0.105 µM
- TGI (MCF7 breast): 9.02 µM
- GI50 (SF-295 CNS): 1.62 µM
- TGI (SF-295 CNS): 32.9 µM
- GI50 (OVCAR-4 ovarian): 0.281 µM
- TGI (OVCAR-4 ovarian): 7.69 µM
- GI50 (SK-MEL-2 melanoma): 0.986 µM
- TGI (SK-MEL-2 melanoma): 6.72 µM
- GI50 (MALME-3M melanoma): 8.68 µM
- TGI (MALME-3M melanoma): 30.5 µM
- GI50 (SNB-19 CNS): 15.8 µM
- TGI (SNB-19 CNS): 64.5 µM
- GI50 (A498 renal): 0.0115 µM
- TGI (A498 renal): 0.0323 µM
- GI50 (SK-OV-3 ovarian): 2.88 µM
- TGI (SK-OV-3 ovarian): 33.2 µM
- GI50 (MOLT-4 leukemia): 19.6 µM
- TGI (MOLT-4 leukemia): 54 µM
- GI50 (NCI-H522 lung): 3.21 µM
- TGI (NCI-H522 lung): 14.8 µM
- GI50 (SF-539 CNS): 11.5 µM
- TGI (SF-539 CNS): 27.8 µM
- GI50 (786-0 renal): 2.51 µM
- TGI (786-0 renal): 21.2 µM
- GI50 (T-47D breast): 0.0386 µM
- TGI (T-47D breast): 0.55 µM
- GI50 (M14 melanoma): 5.95 µM
- TGI (M14 melanoma): 22.1 µM
- GI50 (OVCAR-3 ovarian): 0.495 µM
- TGI (OVCAR-3 ovarian): 8.23 µM
- GI50 (HT29 colon): 1.35 µM
- TGI (HT29 colon): 17.8 µM
- GI50 (ACHN renal): 3.57 µM
- TGI (ACHN renal): 34.2 µM
- GI50 (MDA-MB-435): 17.1 µM
- TGI (MDA-MB-435): 43.9 µM
- GI50 (OVCAR-5 ovarian): < 0.01 µM
- TGI (OVCAR-5 ovarian): 0.613 µM
- GI50 (UACC-62 melanoma): 0.0565 µM
- TGI (UACC-62 melanoma): 0.601 µM
- GI50 (HOP-92 NSCLC): 3.03 µM
- TGI (HOP-92 NSCLC): 19.7 µM
- GI50 (SR leukemia): 15.9 µM
- TGI (SR leukemia): 71.7 µM
- GI50 (SN12C renal): 4.66 µM
- TGI (SN12C renal): 21.6 µM
- GI50 (SF-268 CNS): 12.3 µM
- TGI (SF-268 CNS): 36.7 µM
